Patent publication US9840511B2, “2-(aryl or heteroaryl-)phenyl (AZA)benzofuran compounds for the treatment of hepatitis C” (BRISTOL-MYERS SQUIBB COMPANY, priority 2014, dated 2017)
Like-named read-outs stand apart in the source and are kept apart here.

Key:
[1] = tested on: genotype 1b (Con-1) HCV replicon; assay: HCV replicon luciferase assay; type: cell-based; conditions: Hepatitis C virus, 72 h, Huh-7 cells, genotype 1b replicon, Renilla luciferase, 3 days incubation
Protocol: Cell lines. The cell lines used to evaluate compounds consist of a human hepatocyte derived cell line (Huh-7) that constitutively expresses a genotype 1b (Con-1) HCV replicon or a genotype 1b (Con-1) HCV replicon with an asparagine replacing the cysteine at amino acid 316, or a genotype 2a (JFH-1) replicon, containing a Renilla luciferase reporter gene. These cells were maintained in Dulbecco's modified Eagle medium (DMEM) containing 10% FBS, 100 U/mL penicillin/streptomycin and 1.0 mg/mL G418.
HCV replicon luciferase assay. To evaluate compound efficacy, titrated compounds were transferred to sterile 384-well tissue culture treated plates, and the plates were seeded with HCV replicon cells (50 μL at a density of 2.4×10^3 cells/well) in DMEM containing 4% FBS (final DMSO concentration at 0.5%). After 3 days incubation at 37° C., cells were analyzed for Renilla Luciferase activity using the EnduRen substrate (Promega cat #E6485) according to the manufacturer's directions. Briefly, the EnduRen substrate was diluted in DMEM and then added to the plates to a final concentration of 7.5 μM. The plates were incubated for at least 1 h at 37° C. then read on a Viewlux Imager (PerkinElmer) using a luminescence program. The 50% effective concentration (EC50) was calculated using the four-parameter logistic formula noted above.
Compound EC50 data is expressed as A:<100 nM; B=100-1000 nM; C>1000 nM).

HCV = conditions: combination therapy; cited from earlier work
[2] = extended dosing of the combination regimens; cited from earlier work

Molecule | EC50 ([1]; read-out: EC50 lb (class)) [µM] | other results
CCN(c1cc2oc(-c3ccc(-n4cccn4)cc3)c(C(=O)NC)c2cc1-c1cccc(C(=O)NC(C)(C)C)c1)S(C)(=O)=O [Compound 1001] | < 0.1 | EC50 ([1]; read-out: EC50 (uM) lb): 0.017 µM
CNC(=O)c1c(-c2ccc(-n3ccc(C)n3)cc2)oc2nc(CCC(F)(F)F)c(-c3cccc(C(=O)NC(C)(C)C)c3)cc12 [Compound 3010] | 0.1 to 1 | EC50 ([1]; read-out: EC50 (uM) lb): 0.28 µM
alpha-interferon and ribavirin |  | sustained efficacy, share of patients (HCV): 40%
CNC(=O)c1c(-c2ccc(-n3cnc(C)c3)cc2)oc2nc(CCC(F)(F)F)c(-c3cccc(C(=O)NC(C)(C)C)c3)cc12 [Compound 3009] | > 1 | 
CCN(c1cc2oc(-c3ccc(-n4ccnn4)cc3)c(C(=O)NC)c2cc1-c1cccc(C(=O)NC(C)(C)C)c1)S(C)(=O)=O [Compound 1002] | < 0.1 | EC50 ([1]; read-out: EC50 (uM) lb): 0.069 µM
CNC(=O)c1c(-c2ccc(-n3ccc(C(F)(F)F)n3)cc2)oc2nc(-n3ccc(C(F)(F)F)n3)c(-c3cccc(C(=O)NC(C)(C)C)c3)cc12 [Compound 2001] | 0.1 to 1 | 
CNC(=O)c1c(-c2ccc(-n3ccnc3)cc2)oc2nc(CCC(F)(F)F)c(-c3cccc(C(=O)NC(C)(C)C)c3)cc12 [Compound 3006] | 0.1 to 1 | 
CNC(=O)c1c(-c2ccc(-n3ncnc3C)cc2)oc2nc(CCC(F)(F)F)c(-c3cccc(C(=O)NC(C)(C)C)c3)cc12 [Compound 3002] | > 1 | 
CNC(=O)c1c(-c2ccc(-n3ccnn3)cc2)oc2nc(CCC(F)(F)F)c(-c3cccc(C(=O)NC(C)(C)C)c3)cc12 [Compound 3001] | < 0.1 | EC50 ([1]; read-out: EC50 (uM) lb): 0.035 µM
CNC(=O)c1c(-c2ccc(-n3cncn3)cc2)oc2nc(CCC(F)(F)F)c(-c3cccc(C(=O)NC(C)(C)C)c3)cc12 [Compound 3007] | 0.1 to 1 | 
CNC(=O)c1c(-c2ccc(-c3ncccc3O)cc2)oc2nc(CCC(F)(F)F)c(-c3cccc(C(=O)NC(C)(C)C)c3)cc12 [Compound 4001] | 0.1 to 1 | 
CNC(=O)c1c(-c2ccc(-n3cc(C(F)(F)F)cn3)cc2)oc2nc(-n3cc(C(F)(F)F)cn3)c(-c3cccc(C(=O)NC(C)(C)C)c3)cc12 [Compound 2002] | > 1 | 
CNC(=O)c1c(-c2ccc(F)cc2)oc2cc(N(CCO)S(C)(=O)=O)c(C3CC3)cc12 [HCV-796] |  | hepatic toxicity [2]: hepatic toxicity observed
CNC(=O)c1c(-c2ccc(-n3cnnc3C)cc2)oc2nc(CCC(F)(F)F)c(-c3cccc(C(=O)NC(C)(C)C)c3)cc12 [Compound 3003] | > 1 | EC50 ([1]; read-out: EC50 (uM) lb): 3.32 µM
CCN(c1cc2oc(-c3ccc(-n4nccn4)cc3)c(C(=O)NC)c2cc1-c1cccc(C(=O)NC(C)(C)C)c1)S(C)(=O)=O [Compound 1003] | < 0.1 | 
CNC(=O)c1c(-c2ccc(-n3cc(C)cn3)cc2)oc2nc(CCC(F)(F)F)c(-c3cccc(C(=O)NC(C)(C)C)c3)cc12 [Compound 3008] | > 1 | 
CNC(=O)c1c(-c2ccc(-n3cnc(C)n3)cc2)oc2nc(CCC(F)(F)F)c(-c3cccc(C(=O)NC(C)(C)C)c3)cc12 [Compound 3004] | 0.1 to 1 | 
